Data as given in patent US20250215029A1 (Recludix Pharma, Inc., priority 2022, published 2025).

Experiments:
[1] = molecular target: T1, Recombinant STAT6 protein (STAT6 (W123-T658)) (Homo sapiens, UniProt P42226); assay: STAT6 Fluorescence Polarization (FP) Assay; type: binding; details: STAT6 (W123-T658) 250 nM, probe 5-FAM-Ap[…]-NH2 2 nM, 45-minute incubation; read-out: STAT6 (FP assay IC50 class)
T1 construct: Recombinant STAT6 protein (STAT6 (W123-T658))
T1 sequence (P42226 123-658): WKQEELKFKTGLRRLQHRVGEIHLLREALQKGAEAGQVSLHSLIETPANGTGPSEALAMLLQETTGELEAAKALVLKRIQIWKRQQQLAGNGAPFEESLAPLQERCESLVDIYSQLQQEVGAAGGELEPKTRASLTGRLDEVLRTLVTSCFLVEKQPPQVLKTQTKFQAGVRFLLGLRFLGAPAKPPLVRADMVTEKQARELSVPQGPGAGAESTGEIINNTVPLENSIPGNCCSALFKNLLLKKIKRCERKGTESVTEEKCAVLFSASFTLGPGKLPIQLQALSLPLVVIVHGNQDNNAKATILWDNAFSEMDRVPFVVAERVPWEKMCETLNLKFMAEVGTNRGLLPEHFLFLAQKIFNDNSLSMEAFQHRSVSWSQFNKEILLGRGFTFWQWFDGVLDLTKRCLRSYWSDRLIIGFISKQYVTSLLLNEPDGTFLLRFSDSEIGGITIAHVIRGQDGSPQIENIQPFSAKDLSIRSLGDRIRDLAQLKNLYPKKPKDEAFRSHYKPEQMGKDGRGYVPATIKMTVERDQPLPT
Method in brief: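 Competitive FP binding: recombinant STAT6 (W123-T658) at 250 nM, labeled phosphotyrosine peptide at 2 nM, compounds at 1% DMSO, 45 min at RT before reading. IC50 values were obtained from nonlinear regression of mP versus log concentration.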

[2] = molecular target: T2, Recombinant STAT3 protein (STAT3 (G127-I722)) (Homo sapiens, UniProt P40763); assay: STAT3 Fluorescence Polarization (FP) Assay; type: binding; details: STAT3 (G127-I722) 25 nM, probe 5-FAM-GpYLPQTV-NH2 2 nM, 45-minute incubation; read-out: STAT3 (FP assay IC50 class)
T2 construct: Recombinant STAT3 protein (STAT3 (G127-I722))
T2 sequence (P40763 127-722): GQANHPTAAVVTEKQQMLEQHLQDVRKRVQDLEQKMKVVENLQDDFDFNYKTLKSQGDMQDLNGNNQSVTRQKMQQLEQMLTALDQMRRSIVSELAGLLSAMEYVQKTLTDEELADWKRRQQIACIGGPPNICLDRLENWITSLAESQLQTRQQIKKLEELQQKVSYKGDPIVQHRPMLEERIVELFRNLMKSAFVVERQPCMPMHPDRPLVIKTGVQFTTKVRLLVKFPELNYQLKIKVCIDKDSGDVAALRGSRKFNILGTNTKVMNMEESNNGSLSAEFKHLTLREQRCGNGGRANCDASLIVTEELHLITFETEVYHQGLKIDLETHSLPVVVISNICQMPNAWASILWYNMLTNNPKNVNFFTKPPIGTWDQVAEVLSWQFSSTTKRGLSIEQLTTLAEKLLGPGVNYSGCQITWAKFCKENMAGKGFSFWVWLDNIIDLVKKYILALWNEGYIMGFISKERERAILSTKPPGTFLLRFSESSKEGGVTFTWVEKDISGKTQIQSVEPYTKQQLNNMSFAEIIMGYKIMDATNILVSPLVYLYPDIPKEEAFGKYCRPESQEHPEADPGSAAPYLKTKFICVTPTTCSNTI
Method in brief: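 In this competition FP format, STAT3 residues G127-I722 (25 nM) and 2 nM 5-FAM-GpYLPQTV-NH2 met test compounds for 45 min at room temperature. IC50 values result from fitting mP signal against log concentration by nonlinear regression.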

| Compound | IC50 [1] [µM] | IC50 [2] [µM] |
| --- | --- | --- |
| O=C(N[C@H]1CCCC[C@H]2CC[C@@H](C(=O)N3C[C@H](c4cc[nH]c(=O)c4)CC34CC4)N2C1=O)c1ccc2ccc(CP(=O)(O)O)cc2c1 [Compound 882, ((7-(((3S,6S,10aS)-5-oxo-3-((S)-6-(2-oxo-1,2-dihydropyridin-4-yl)-4-azaspiro[2.4]heptane-4-carbonyl)decahydropyrrolo[1,2-a]azocin-6-yl)carbamoyl)naphthalen-2-yl)methyl) phosphonic acid] | 0.3 to 3 | 1 to 10 |
| O=C(N[C@H]1CCCC[C@H]2CC[C@@H](C(=O)N3C[C@@H](c4cc[nH]c(=O)c4)CC34CC4)N2C1=O)c1ccc2ccc(CP(=O)(O)O)cc2c1 [Compound 883, ((7-(((3S,6S,10aS)-5-oxo-3-((R)-6-(2-oxo-1,2-dihydropyridin-4-yl)-4-azaspiro[2.4]heptane-4-carbonyl)decahydropyrrolo[1,2-a]azocin-6-yl)carbamoyl)naphthalen-2-yl)methyl) phosphonic acid] | 0.3 to 3 | 1 to 10 |
| O=C(N[C@H]1CCCC[C@H]2CC[C@@H](C(=O)N3CC(c4ccccc4)CC34CC4)N2C1=O)c1ccc2ccc(CP(=O)(O)O)cc2c1 (stereo partly drawn) [Compound 884, ((7-(((3S,6S,10aS)-5-oxo-3-(6-phenyl-4-azaspiro[2.4]heptane-4-carbonyl)decahydropyrrolo[1,2-a]azocin-6-yl)carbamoyl)naphthalen-2-yl)methyl) phosphonic acid] | 0.3 to 3 | 1 to 10 |
| C/C1=C/[C@H]2CC[C@@H](C(=O)N3CC(c4ccccc4)CC34CC4)N2C(=O)[C@@H](NC(=O)c2ccc3ccc(CP(=O)(O)O)cc3c2)CC1 (stereo partly drawn) [Compound 885, ((7-(((3S,6S,10aR,Z)-9-methyl-5-oxo-3-(6-phenyl-4-azaspiro[2.4]heptane-4-carbonyl)-1,2,3,5,6,7,8,10a-octahydropyrrolo[1,2-a]azocin-6-yl)carbamoyl)naphthalen-2-yl)methyl) phosphonic acid] | 0.3 to 3 | 1 to 10 |
| C[C@@H]1CC[C@H](NC(=O)c2ccc3ccc(CP(=O)(O)O)cc3c2)C(=O)N2[C@H](CC[C@H]2C(=O)N2CC(c3ccccc3)CC23CC3)C1 (stereo partly drawn) [Compound 887, ((7-(((3S,6S,9R,10aR)-9-methyl-5-oxo-3-(6-phenyl-4-azaspiro[2.4]heptane-4-carbonyl)decahydropyrrolo[1,2-a]azocin-6-yl)carbamoyl)naphthalen-2-yl)methyl) phosphonic acid] | 0.3 to 3 | 1 to 10 |
| C[C@H]1CC[C@H](NC(=O)c2ccc3ccc(CP(=O)(O)O)cc3c2)C(=O)N2[C@H](CC[C@H]2C(=O)N2CC(c3ccccc3)CC23CC3)C1 (stereo partly drawn) [Compound 888, ((7-(((3S,6S,9S,10aR)-9-methyl-5-oxo-3-(6-phenyl-4-azaspiro[2.4]heptane-4-carbonyl)decahydropyrrolo[1,2-a]azocin-6-yl)carbamoyl)naphthalen-2-yl)methyl) phosphonic acid] | 0.3 to 3 | 1 to 10 |
| O=C(N[C@H]1CCCC[C@H]2CC[C@@H](C(=O)N3CC(c4cccnc4)CC34CC4)N2C1=O)c1ccc2ccc(C(F)P(=O)(O)O)cc2c1 (stereo partly drawn) [Compound 891, (fluoro(7-(((3S,6S,10aS)-5-oxo-3-(6-(pyridin-3-yl)-4-azaspiro[2.4]heptane-4-carbonyl)decahydropyrrolo[1,2-a]azocin-6-yl)carbamoyl)naphthalen-2-yl)methyl) phosphonic acid] | ≤ 0.3 | 1 to 10 |
| O=C(N[C@H]1CCCC[C@H]2CC[C@@H](C(=O)N3CCC(c4cccnc4)C3)N2C1=O)c1ccc2ccc(C(F)P(=O)(O)O)cc2c1 (stereo partly drawn) [Compound 892, (fluoro(7-(((3S,6S,10aS)-5-oxo-3-(3-(pyridin-3-yl)pyrrolidine-1-carbonyl)decahydropyrrolo[1,2-a]azocin-6-yl)carbamoyl)naphthalen-2-yl)methyl) phosphonic acid] | 0.3 to 3 | 1 to 10 |
| O=C(N[C@H]1CCCC[C@H]2CC[C@@H](C(=O)N3C(=O)N(c4cccnc4)C(=O)C34CC4)N2C1=O)c1ccc2ccc(CP(=O)(O)O)cc2c1 [Compound 893, ((7-(((3S,6S,10aS)-3-(5,7-dioxo-6-(pyridin-3-yl)-4,6-diazaspiro[2.4]heptane-4-carbonyl)-5-oxodecahydropyrrolo[1,2-a]azocin-6-yl)carbamoyl)naphthalen-2-yl)methyl) phosphonic acid] | 0.3 to 3 | 1 to 10 |
| O=C(N[C@H]1CCCC[C@H]2CC[C@@H](C(=O)N3CC(c4ccccc4)CC34CC4)N2C1=O)c1cnc2ccc(CP(=O)(O)O)cc2c1 (stereo partly drawn) [Compound 895, ((3-(((3S,6S,10aS)-5-oxo-3-(6-phenyl-4-azaspiro[2.4]heptane-4-carbonyl)decahydropyrrolo[1,2-a]azocin-6-yl)carbamoyl)quinolin-6-yl)methyl) phosphonic acid] | 0.3 to 3 | 1 to 10 |
| CC(c1ccc2sc(C(=O)N[C@H]3CCC[C@H]4CC[C@@H](C(=O)N5CC(c6cccnc6)C5)N4C3=O)cc2c1)P(=O)(O)O (stereo partly drawn) [Compound 896, (1-(2-(((3S,6S,9aS)-5-oxo-3-(3-(pyridin-3-yl)azetidine-1-carbonyl)octahydro-1H-pyrrolo[1,2-a]azepin-6-yl)carbamoyl)benzo [b]thiophen-5-yl)ethyl) phosphonic acid] | 3 to 30 | 0.1 to 1 |

Continued, values first:

| IC50 [1] [µM] | IC50 [2] [µM] | Compound |
| --- | --- | --- |
| ≤ 0.3 | 1 to 10 | Cn1ccc(C2CN(C(=O)[C@@H]3CC[C@@H]4CCCC[C@H](NC(=O)c5cc6cc(C(F)P(=O)(O)O)ccc6s5)C(=O)N43)C3(CC3)C2)cc1=O (stereo partly drawn) [Compound 898, (fluoro(2-(((3S,6S,10aS)-3-(6-(1-methyl-2-oxo-1,2-dihydropyridin-4-yl)-4-azaspiro[2.4]heptane-4-carbonyl)-5-oxodecahydropyrrolo [1,2-a]azocin-6-yl)carbamoyl)benzo [b]thiophen-5-yl)methyl) phosphonic acid] |
| 0.3 to 3 | 1 to 10 | Cn1ccc(C2CCN(C(=O)[C@@H]3CC[C@@H]4CCCC[C@H](NC(=O)c5ccc6ccc(C(F)P(=O)(O)O)cc6c5)C(=O)N43)C2)cc1=O (stereo partly drawn) [Compound 899, (fluoro(7-(((3S,6S,10aS)-3-(3-(1-methyl-2-oxo-1,2-dihydropyridin-4-yl)pyrrolidine-1-carbonyl)-5-oxodecahydropyrrolo [1,2-a]azocin-6-yl)carbamoyl)naphthalen-2-yl)methyl) phosphonic acid] |
| ≤ 0.3 | 1 to 10 | O=C(N[C@H]1CCCC[C@H]2CC[C@@H](C(=O)N3C(=O)N(c4cccnc4)C(=O)C34CC4)N2C1=O)c1cc2cc(C(F)P(=O)(O)O)ccc2s1 (stereo partly drawn) [Compound 900, ((2-(((3S,6S,10aS)-3-(5,7-dioxo-6-(pyridin-3-yl)-4,6-diazaspiro[2.4]heptane-4-carbonyl)-5-oxodecahydropyrrolo [1,2-a]azocin-6-yl)carbamoyl)benzo [b]thiophen-5-yl)fluoromethyl) phosphonic acid] |
| 3 to 30 | 1 to 10 | Cn1ncc(C2CCN(C(=O)[C@@H]3CC[C@@H]4CCCC[C@H](NC(=O)c5ccc6ccc(C(F)P(=O)(O)O)cc6c5)C(=O)N43)C2)cc1=O (stereo partly drawn) [Compound 902, (fluoro(7-(((3S,6S,10aS)-3-(3-(1-methyl-6-oxo-1,6-dihydropyridazin-4-yl)pyrrolidine-1-carbonyl)-5-oxodecahydropyrrolo [1,2-a]azocin-6-yl)carbamoyl)naphthalen-2-yl)methyl) phosphonic acid] |
| 0.3 to 3 | 1 to 10 | Cn1ccc(C2(F)CCN(C(=O)[C@@H]3CC[C@@H]4CCCC[C@H](NC(=O)c5ccc6ccc(C(F)P(=O)(O)O)cc6c5)C(=O)N43)C2)cc1=O (stereo partly drawn) [Compound 903, (fluoro(7-(((3S,6S,10aS)-3-(3-fluoro-3-(1-methyl-2-oxo-1,2-dihydropyridin-4-yl)pyrrolidine-1-carbonyl)-5-oxodecahydropyrrolo [1,2-a]azocin-6-yl)carbamoyl)naphthalen-2-yl)methyl) phosphonic acid] |
| 0.3 to 3 | 1 to 10 | O=C(N[C@H]1CCC[C@H]2CC[C@@H](C(=O)N3CC(c4cccnc4)CC34CC4)N2C1=O)c1ccc2ccc(C(F)P(=O)(O)O)cc2c1 (stereo partly drawn) [Compound 904, (fluoro(7-(((3S,6S,9aS)-5-oxo-3-(6-(pyridin-3-yl)-4-azaspiro[2.4]heptane-4-carbonyl)octahydro-1H-pyrrolo[1,2-a]azepin-6-yl)carbamoyl)naphthalen-2-yl)methyl) phosphonic acid] |
